Reference: patent US11584755B2 (IDEAYA BIOSCIENCES, INC., priority 2017, dated 2023)

Experiments:
hFEN1 = hFEN1 (Homo sapiens (Human), UniProt P39748); test: Enzymatic IC50 assay, FAM-labeled DNA oligomer substrate, fluorescence intensity (FEN1); assay type: biochemical; conditions: hFEN1 70 pM, substrate 100 nM, reaction time 20 minutes, 23° C.
Protocol: (§1) FEN1, EXO1 or XPG enzyme was incubated with compound or vehicle (DMSO) and the FAM-labeled DNA oligomer substrate in a microtiter plate. The stop buffer contains EDTA to stop the enzymatic reaction. The plate is read for fluorescence intensity. The high control (DMSO) with high fluorescence intensity represents no inhibition of enzymatic reaction while the low control (10 μM) with low fluorescence intensity represents full inhibition of enzymatic reaction.
(§2) • FEN1 • hFEN1: 70 pM • Substrate: 100 nM • Reaction time: 20 minutes • EXO1 • hEXO1: 6 nM, Isoforml • Substrate: 30 nM • Reaction time: 60 minutes • XPG • hXPG: 100 nM • Substrate: 100 nM • Reaction time: 120 minutes
(§3) Annealing Buffer: 50 mM Tris-HCl, 50 mM NaCl, 1 mM DTT Assay buffer: 50 mM Tris-HCl pH 8.0, 10 mM MgCl2, 0.01% BSA, 1 mM DTT Stop buffer: 50 mM EDTA in assay buffer Temperature: 23° C. Total volume: 40 μl Controls: • 0% inhibition control: DMSO • 100% inhibition control: 10 μM (final) 5-chloro-3-hydroxy-1,3-dihydroquinazoline-2,4-dione Enzyme Reaction and Detection: • 1. Prepare 25 μM intermediate stock of the substrate by diluting SEQ ID NO:1, SEQ ID NO:2, and SEQ ID NO:3 in annealing buffer, in a PCR tube. • 2. Place the PCR tube on a heat block, heat at 95° C. for 3 minutes, then drop in 0.2° C. increments over 2 minutes, stopping at 25° C. • 3. Remove the tube and let the tube cool at room temperature. • 4. Transfer 10 μL of 3× final concentration test compounds or DMSO to the appropriate wells of a microtiter plate. • 5. Transfer 10 μL of 3× final concentration enzyme in assay buffer or assay buffer alone to the appropriate wells. • 6. Incubate the plate at room temperature for 15 minutes. • 7. Transfer 10 μL of 3× substrate in assay buffer to all the test wells. • 8. Incubate the plate at room temperature for prescribed reaction time. • 9. Centrifuge the plate at 1000 rpm for 1 minute. • 10. Transfer 10 μL of stop buffer to all the test wells. • 11. Centrifuge the plate at 1000 rpm for 1 minute. • 12. Read the plate on a plate reader.

hEXO1, Isoform1 = hEXO1, Isoform1 (Homo sapiens (Human), UniProt Q9UQ84); test: Enzymatic IC50 assay, FAM-labeled DNA oligomer substrate, fluorescence intensity (EXO1); assay type: biochemical; conditions: hEXO1 6 nM, substrate 30 nM, reaction time 60 minutes, 23° C.
Sequence of hEXO1, Isoform1 (Q9UQ84 whole entry, canonical isoform): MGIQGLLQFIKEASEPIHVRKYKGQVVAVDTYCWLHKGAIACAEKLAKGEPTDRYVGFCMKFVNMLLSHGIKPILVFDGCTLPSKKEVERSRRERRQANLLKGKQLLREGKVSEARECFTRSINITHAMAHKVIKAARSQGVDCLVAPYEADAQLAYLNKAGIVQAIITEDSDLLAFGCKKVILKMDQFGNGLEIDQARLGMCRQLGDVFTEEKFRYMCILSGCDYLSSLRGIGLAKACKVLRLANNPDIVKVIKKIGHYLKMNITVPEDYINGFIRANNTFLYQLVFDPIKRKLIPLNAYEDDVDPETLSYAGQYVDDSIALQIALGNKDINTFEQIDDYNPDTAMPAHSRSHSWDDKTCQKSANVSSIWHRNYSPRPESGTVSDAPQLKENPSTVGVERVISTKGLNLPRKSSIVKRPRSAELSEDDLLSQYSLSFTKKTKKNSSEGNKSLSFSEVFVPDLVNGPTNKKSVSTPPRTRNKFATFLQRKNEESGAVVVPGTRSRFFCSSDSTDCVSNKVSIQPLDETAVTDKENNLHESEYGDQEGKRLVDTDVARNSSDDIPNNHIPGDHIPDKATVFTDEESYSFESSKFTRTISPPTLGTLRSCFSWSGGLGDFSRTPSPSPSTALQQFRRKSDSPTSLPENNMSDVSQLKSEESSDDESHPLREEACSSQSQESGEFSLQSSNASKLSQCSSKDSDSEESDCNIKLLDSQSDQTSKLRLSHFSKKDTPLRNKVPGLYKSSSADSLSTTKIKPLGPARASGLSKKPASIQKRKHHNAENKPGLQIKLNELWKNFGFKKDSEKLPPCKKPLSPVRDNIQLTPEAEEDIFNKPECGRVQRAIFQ
Protocol: as §1, §2, §3

Sequence of hFEN1 (P39748 whole entry): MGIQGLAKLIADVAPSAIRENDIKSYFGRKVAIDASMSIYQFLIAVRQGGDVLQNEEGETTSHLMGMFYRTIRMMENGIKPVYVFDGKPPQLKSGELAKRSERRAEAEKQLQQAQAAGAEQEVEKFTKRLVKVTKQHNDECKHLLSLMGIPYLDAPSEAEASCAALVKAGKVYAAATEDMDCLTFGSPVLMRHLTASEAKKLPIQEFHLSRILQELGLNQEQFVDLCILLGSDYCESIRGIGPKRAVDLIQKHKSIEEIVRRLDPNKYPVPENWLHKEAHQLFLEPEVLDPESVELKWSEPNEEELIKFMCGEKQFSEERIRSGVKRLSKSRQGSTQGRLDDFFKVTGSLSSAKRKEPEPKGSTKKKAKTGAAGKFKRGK

IC50 (hFEN1) | IC50 (hEXO1, Isoform1) | SMILES
250 to 750 nM | 2250 to 10000 nM | CCOC(=O)c1c(O)c(=O)n(Cc2ccc(N)cc2)c2ccsc12 [Example 41, ethyl 4-(4-aminobenzyl)-6-hydroxy-5-oxo-4,5-dihydrothieno[3,2-b]pyridine-7-carboxylate]
> 10000 nM | > 10000 nM | Cc1nc(Cn2c(=O)c(O)c(C(=O)O)c3sccc32)co1 [Example 96, 6-hydroxy-4-((2-methyloxazol-4-yl)methyl)-5-oxo-4,5-dihydrothieno[3,2-b]pyridine-7-carboxylic acid]
250 to 750 nM | 2250 to 10000 nM | O=C(O)c1c(O)c(=O)n(Cc2ccccc2[N+](=O)[O-])c2ccsc12 [Example 37, 6-hydroxy-4-(2-nitrobenzyl)-5-oxo-4,5-dihydrothieno[3,2-b]pyridine-7-carboxylic acid]
250 to 750 nM | 250 to 750 nM | CS(=O)(=O)c1ccc(-c2ncc(Cn3c(=O)c(O)c(C(=O)O)c4sccc43)s2)cc1 [Example 166, 6-hydroxy-4-({2-[4-(methylsulfonyl)phenyl)thiazol-5-yl)methyl)-5-oxo-4,5-dihydrothieno[3,2-b]pyridine-7-carboxylic acid]
2250 to 10000 nM | 2250 to 10000 nM | CC(=O)N1CCCC(Cn2c(=O)c(O)c(C(=O)O)c3sccc32)C1 (centres unmarked) [Example 49, 4-((1-acetylpiperidin-3-yl)methyl)-6-hydroxy-5-oxo-4,5-dihydrothieno[3,2-b]pyridine-7-carboxylic acid]
2250 to 10000 nM | > 10000 nM | Cc1nc(Cn2c(=O)c(O)c(C(=O)O)c3sccc32)cs1 [Example 92, 6-hydroxy-4-[(2-methylthiazol-4-yl)methyl]-5-oxo-4,5-dihydrothieno[3,2-b]pyridine-7-carboxylic acid]
< 200 nM | 750 to 2250 nM | CS(=O)(=O)Nc1ccc(-c2ncc(Cn3c(=O)c(O)c(C(=O)O)c4sccc43)s2)cc1 [Example 167, 6-hydroxy-4-({2-[4-(methylsulfonamido)phenyl]thiazol-5-yl}methyl)-5-oxo-4,5-dihydrothieno[3,2-b]pyridine-7-carboxylic acid]
250 to 750 nM | 2250 to 10000 nM | O=C(O)c1c(O)c(=O)n(Cc2cccc([N+](=O)[O-])c2)c2ccsc12 [Example 6, 6-hydroxy-4-[(3-nitrophenyl)methyl]-5-oxo-thieno[3,2-b]pyridine-7-carboxylic acid]
2250 to 10000 nM | 2250 to 10000 nM | CNC(=O)c1cccc(Cn2c(=O)c(O)c(C(=O)O)c3sccc32)c1 [Example 66, 6-hydroxy-4-[3-(methylcarbamoyl)benzyl]-5-oxo-4,5-dihydrothieno[3,2-b]pyridine-7-carboxylic acid]
2250 to 10000 nM | 750 to 2250 nM | O=C(O)c1c(O)c(=O)n(Cc2cnc(-c3cccc4ncccc34)s2)c2ccsc12 [Example 169, 6-hydroxy-5-oxo-4-{[2-(quinolin-5-yl)thiazol-5-yl]methyl}-4,5-dihydrothieno[3,2-b]pyridine-7-carboxylic acid]
250 to 750 nM | 750 to 2250 nM | COc1ccc(-n2cc(Cn3c(=O)c(O)c(C(=O)O)c4sccc43)c(Br)n2)cc1 [Example 161, 4-{[3-bromo-1-(4-methoxyphenyl)-1H-pyrazol-4-yl]methyl}-6-hydroxy-5-oxo-4,5-dihydrothieno[3,2-b]pyridine-7-carboxylic acid]
2250 to 10000 nM | 750 to 2250 nM | Cn1cc(Cn2c(=O)c(O)c(C(=O)O)c3sccc32)c(-c2ccccc2)n1 [Example 158, 6-hydroxy-4-[(1-methyl-3-phenyl-1H-pyrazol-4-yl)methyl]-5-oxo-4,5-dihydrothieno[3,2-b]pyridine-7-carboxylic acid]
750 to 2250 nM | 750 to 2250 nM | O=C(O)c1c(O)c(=O)n(Cc2cnc(-c3ccnc4ccccc34)s2)c2ccsc12 [Example 170, 6-hydroxy-5-oxo-4-{[2-(quinolin-4-yl)thiazol-5-yl]methyl}-4,5-dihydrothieno[3,2-b]pyridine-7-carboxylic acid]
 | 2250 to 10000 nM | Cc1c(Cn2c(=O)c(O)c(C(=O)O)c3sccc32)cnn1C [Example 159, 4-[(1,5-dimethyl-1H-pyrazol-4-yl)methyl]-6-hydroxy-5-oxo-4,5-dihydrothieno[3,2-b]pyridine-7-carboxylic acid]
750 to 2250 nM |  | CC(=O)Nc1ccc(Cn2c(=O)c(O)c(C(=O)O)c3sccc32)cc1Cl [Example 14, 4-(4-acetamido-3-chlorobenzyl)-6-hydroxy-5-oxo-4,5-dihydrothieno[3,2-b]pyridine-7-carboxylic acid]
2250 to 10000 nM |  | O=C(O)c1c(O)c(=O)n(CC2CCNCC2)c2ccsc12 [Example 10, 6-hydroxy-5-oxo-4-(4-piperidylmethyl)thieno[3,2-b]pyridine-7-carboxylic acid]
250 to 750 nM |  | COc1cc(-c2ccc(Cn3c(=O)c(O)c(C(=O)O)c4sccc43)cc2)ccn1 [Example 151, 6-hydroxy-4-(4-(2-methoxypyridin-4-yl)benzyl)-5-oxo-4,5-dihydrothieno[3,2-b]pyridine-7-carboxylic acid]
< 200 nM |  | COc1cc(Cn2cc(Cn3c(=O)c(O)c(C(=O)O)c4sccc43)cn2)ccn1 [Example 129, 6-hydroxy-4-({1-[(2-methoxypyridin-4-yl)methyl]-1H-pyrazol-4-yl}methyl)-5-oxo-4,5-dihydrothieno[3,2-b]pyridine-7-carboxylic acid]
250 to 750 nM |  | O=C(O)c1c(O)c(=O)n(Cc2ccc(-c3ccccc3)nc2)c2ccsc12 [Example 147, 6-hydroxy-5-oxo-4-[(6-phenylpyridin-3-yl)methyl]-4,5-dihydrothieno[3,2-b]pyridine-7-carboxylic acid]
< 200 nM |  | COc1cccc(Cn2cc(Cn3c(=O)c(O)c(C(=O)O)c4sccc43)nn2)c1 [Example 150, 6-hydroxy-4-{[1-(3-methoxybenzyl)-1H-1,2,3-triazol-4-yl]methyl}-5-oxo-4,5-dihydrothieno[3,2-b]pyridine-7-carboxylic acid]
2250 to 10000 nM |  | O=C(O)c1c(O)c(=O)n(CC2CCCOC2)c2ccsc12 (centres unmarked) [Example 79, 6-hydroxy-5-oxo-4-[(tetrahydro-2H-pyran-3-yl)methyl]-4,5-dihydrothieno[3,2-b]pyridine-7-carboxylic acid]
< 200 nM |  | O=C(O)c1c(O)c(=O)n(Cc2nnc(-c3ccccc3)s2)c2ccsc12 [Example 93, 6-hydroxy-5-oxo-4-[(5-phenyl-1,3,4-thiadiazol-2-yl)methyl]-4,5-dihydrothieno[3,2-b]pyridine-7-carboxylic acid]
250 to 750 nM |  | O=C(O)c1c(O)c(=O)n(Cc2cnn(-c3ccc(Cl)cc3)c2)c2ccsc12 [Example 105, 4-{[1-(4-chlorophenyl)-1H-pyrazol-4-yl]methyl}-6-hydroxy-5-oxo-4,5-dihydrothieno[3,2-b]pyridine-7-carboxylic acid]
2250 to 10000 nM |  | CCOC(=O)c1c(O)c(=O)n(Cc2ccc(OC)cc2)c2ccsc12 [Example 33, ethyl 6-hydroxy-4-(4-methoxybenzyl)-5-oxo-4,5-dihydrothieno[3,2-b]pyridine-7-carboxylate]
< 200 nM |  | O=C(O)c1c(O)c(=O)n(Cc2cnn(CC(=O)N3CC[C@@H](O)C3)c2)c2ccsc12 [Example 27, 6-hydroxy-4-[(1-{2-[(3R)-3-hydroxypyrrolidin-1-yl]-2-oxo-ethyl}pyrazol-4-yl)methyl]-5-oxo-thieno[3,2-b]pyridine-7-carboxylic acid]
